Measurements reported in patent US20020137929A1, “1 - (3-heterocyclylphenyl) isothiourea, -isourea, -guanidine and -amidine herbicidal agents” (Intellectual Property Department, BASF Aktiengesellschaft, priority 1998, published 2002).

Experiments:
[1] = system: TRZAWR (Wheat, Winter, cv Riband); assay: Postemergence herbicidal evaluation; format: in vivo, Triticum aestivum; details: postemergence
Summary of the method: (§1)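 Visual 0-9 injury score (stand, vigor, malformation, size, chlorosis, appearance vs untreated) taken four to five weeks post-spray, averaged across repeat tests. Test plants about two weeks old; foliar spray of acetone/water (1:1) with 0.5% surfactant delivering ~0.0156-0.500 kg active/ha.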

CASOB (Sicklepod) = assay: Postemergence herbicidal evaluation; format: in vivo, Cassia obtusifolia; details: postemergence
Summary of the method: as §1

SETVI (Foxtail, Green) = assay: Preemergence herbicidal evaluation; format: in vivo, Setaria viridis; details: rated 4-5 weeks after treatment, rating scale 0-9
Summary of the method: (§2)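 Seeds were planted in potting soil in cups, then sprayed preemergence with the test compound in aqueous acetone at about 0.0156 to 0.500 kg per hectare. Cups were kept under greenhouse conditions and visually rated 4–5 weeks after treatment on a 0–9 scale against an untreated control.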

[2] = system: SAGPY (Arrowhead (Pygmaea)); assay: Preemergence weed control under flooded paddy conditions; format: in vivo, Sagittaria pygmaea; details: rated 3-4 weeks after treatment
Summary of the method: (§3)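 Visual injury scored 0-9 against control three to four weeks post-treatment, greenhouse-grown. Application: acetone/water (50/50) solutions dosed directly into flood water (1.5-3 cm over silt loam, planted top 0.5 cm), roughly 0.0313 to 0.500 kg/ha active ingredient.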

[3] = system: ECHORC (Watergrass (Calif.)); assay: as above; format: in vivo, Echinochloa oryzoides; details: rated 3-4 weeks after treatment
Summary of the method: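 Silt loam, seeds in top 0.5 cm; flood held 1.5-3 cm; test cpd as acetone/water 50/50 into flood water, ~0.0313-0.500 kg/ha a.i.; greenhouse 3-4 wk; visual 0-9 score vs control.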

CYPSE (Flatsedge) = assay: as above; format: in vivo, Cyperus serotinus; details: rated 3-4 weeks after treatment
Summary of the method: as §3

GALAP (Galium) [4] = assay: Preemergence herbicidal evaluation; format: in vivo, Galium aparine; details: rated 4-5 weeks after treatment, rating scale 0-9
Summary of the method: as §2

AMBEL (Ragweed, Common) = assay: Postemergence herbicidal evaluation; format: in vivo, Ambrosia artemisifolia; details: postemergence
Summary of the method: as §1

GALAP (Galium) [5] = assay: Postemergence herbicidal evaluation; format: in vivo, Galium aparine; details: postemergence
Summary of the method: as §1

ORYSAT (Rice, Tebonnet) = assay: Preemergence herbicidal evaluation; format: in vivo, Oryza sativa, (L.) Tebonnet; details: rated 4-5 weeks after treatment, rating scale 0-9
Summary of the method: as §2

MOOVA (Monochoria) = assay: Preemergence weed control under flooded paddy conditions; format: in vivo, Monochoria vaginalis; details: rated 3-4 weeks after treatment
Summary of the method: as §3

[6] = system: GLXMAW (Soybean, Williams); assay: Postemergence herbicidal evaluation; format: in vivo, Glycine max, (L.) Merr. cv Williams; details: postemergence
Summary of the method: as §1

SMILES: CN(C)c1ccc(CN2C(=O)CSC2=Nc2cc(-n3c(=O)cc(C(F)(F)F)n(C)c3=O)c(F)cc2Cl)cc1 [Compound 138, 3-{4-Chloro-5-{{3-[p-(dimethylamino)benzyl]-4-oxo-2-thiazolidinylidene}amino}-2-fluorophenyl}-1-methyl-6-(trifluoromethyl)-2,4(1H,3H)-pyrimidinedione]
- Herbicidal rating TRZAWR ([1]; rate 0.0156 kg/ha): 2.5
- Herbicidal rating TRZAWR ([1]; rate 0.0313 kg/ha): 3.0
- Herbicidal rating TRZAWR ([1]; rate 0.0625 kg/ha): 3.0
- Herbicidal rating CASOB (CASOB (Sicklepod); rate 0.0156 kg/ha): 0.0
- Herbicidal rating CASOB (CASOB (Sicklepod); rate 0.0313 kg/ha): 1.0
- Herbicidal rating CASOB (CASOB (Sicklepod); rate 0.0625 kg/ha): 6.0
- Preemergence herbicidal rating SETVI (SETVI (Foxtail, Green); rate 0.0156 kg/ha): 0.0
- Preemergence herbicidal rating SETVI (SETVI (Foxtail, Green); rate 0.0313 kg/ha): 0.0
- Preemergence herbicidal rating SETVI (SETVI (Foxtail, Green); rate 0.0625 kg/ha): 0.0
- Preemergence herbicidal rating SETVI (SETVI (Foxtail, Green); rate 0.1250 kg/ha): 3.0
- Preemergence herbicidal rating SETVI (SETVI (Foxtail, Green); rate 0.2500 kg/ha): 2.0
- herbicidal effect rating, SAGPY ([2]; 0.0313 kg/ha): 0.0
- herbicidal effect rating, SAGPY ([2]; 0.0625 kg/ha): 0.0
- herbicidal effect rating, SAGPY ([2]; 0.1250 kg/ha): 0.0
- herbicidal effect rating, SAGPY ([2]; 0.2500 kg/ha): 3.0
- herbicidal effect rating, ECHORC ([3]; 0.0313 kg/ha): 7.0
- herbicidal effect rating, ECHORC ([3]; 0.0625 kg/ha): 9.0
- herbicidal effect rating, ECHORC ([3]; 0.1250 kg/ha): 9.0
- herbicidal effect rating, ECHORC ([3]; 0.2500 kg/ha): 9.0
- herbicidal effect rating, CYPSE (CYPSE (Flatsedge); 0.0313 kg/ha): 0.0
- herbicidal effect rating, CYPSE (CYPSE (Flatsedge); 0.0625 kg/ha): 0.0
- herbicidal effect rating, CYPSE (CYPSE (Flatsedge); 0.1250 kg/ha): 0.0
- herbicidal effect rating, CYPSE (CYPSE (Flatsedge); 0.2500 kg/ha): 0.0
- Preemergence herbicidal rating GALAP (GALAP (Galium) [4]; rate 0.0156 kg/ha): 0.0
- Preemergence herbicidal rating GALAP (GALAP (Galium) [4]; rate 0.0313 kg/ha): 0.0
- Preemergence herbicidal rating GALAP (GALAP (Galium) [4]; rate 0.0625 kg/ha): 0.0
- Preemergence herbicidal rating GALAP (GALAP (Galium) [4]; rate 0.1250 kg/ha): 0.0
- Preemergence herbicidal rating GALAP (GALAP (Galium) [4]; rate 0.2500 kg/ha): 4.0
- Herbicidal rating AMBEL (AMBEL (Ragweed, Common); rate 0.0156 kg/ha): 9.0
- Herbicidal rating AMBEL (AMBEL (Ragweed, Common); rate 0.0313 kg/ha): 9.0
- Herbicidal rating AMBEL (AMBEL (Ragweed, Common); rate 0.0625 kg/ha): 9.0
- Herbicidal rating GALAP (GALAP (Galium) [5]; rate 0.0156 kg/ha): 0.0
- Herbicidal rating GALAP (GALAP (Galium) [5]; rate 0.0313 kg/ha): 2.0
- Herbicidal rating GALAP (GALAP (Galium) [5]; rate 0.0625 kg/ha): 2.0
- Preemergence herbicidal rating ORYSAT (ORYSAT (Rice, Tebonnet); rate 0.0156 kg/ha): 0.0
- Preemergence herbicidal rating ORYSAT (ORYSAT (Rice, Tebonnet); rate 0.0313 kg/ha): 0.0
- Preemergence herbicidal rating ORYSAT (ORYSAT (Rice, Tebonnet); rate 0.0625 kg/ha): 0.0
- Preemergence herbicidal rating ORYSAT (ORYSAT (Rice, Tebonnet); rate 0.1250 kg/ha): 0.0
- Preemergence herbicidal rating ORYSAT (ORYSAT (Rice, Tebonnet); rate 0.2500 kg/ha): 0.0
- herbicidal effect rating, MOOVA (MOOVA (Monochoria); 0.0313 kg/ha): 5.0
- herbicidal effect rating, MOOVA (MOOVA (Monochoria); 0.0625 kg/ha): 6.0
- herbicidal effect rating, MOOVA (MOOVA (Monochoria); 0.1250 kg/ha): 6.0
- herbicidal effect rating, MOOVA (MOOVA (Monochoria); 0.2500 kg/ha): 7.0
- Herbicidal rating GLXMAW ([6]; rate 0.0156 kg/ha): 5.0
- Herbicidal rating GLXMAW ([6]; rate 0.0313 kg/ha): 6.0
- Herbicidal rating GLXMAW ([6]; rate 0.0625 kg/ha): 6.5

SMILES: COc1cc(CN2C(=O)CSC2=Nc2cc(-n3c(=O)cc(C(F)(F)F)n(C)c3=O)c(F)cc2Cl)cc(OC)c1OC [Compound 140, 3-{4-Chloro-2-fluoro-5-{[3-(3,4,5-trimethoxybenzyl)-4-oxo-2-thiazolidinylidene]amino}phenyl}-1-methyl-6-(trifluoromethyl)-2,4(1H,3H)-pyrimidinedione]
- Herbicidal rating TRZAWR ([1]; rate 0.0156 kg/ha): 2.5
- Herbicidal rating TRZAWR ([1]; rate 0.0313 kg/ha): 3.5
- Herbicidal rating TRZAWR ([1]; rate 0.0625 kg/ha): 4.0
- Herbicidal rating CASOB (CASOB (Sicklepod); rate 0.0156 kg/ha): 0.0
- Herbicidal rating CASOB (CASOB (Sicklepod); rate 0.0313 kg/ha): 0.0
- Herbicidal rating CASOB (CASOB (Sicklepod); rate 0.0625 kg/ha): 0.0
- Preemergence herbicidal rating SETVI (SETVI (Foxtail, Green); rate 0.0625 kg/ha): 0.0
- Preemergence herbicidal rating SETVI (SETVI (Foxtail, Green); rate 0.1250 kg/ha): 0.0
- Preemergence herbicidal rating SETVI (SETVI (Foxtail, Green); rate 0.2500 kg/ha): 0.0
- herbicidal effect rating, SAGPY ([2]; 0.0313 kg/ha): 2.0
- herbicidal effect rating, SAGPY ([2]; 0.0625 kg/ha): 3.0
- herbicidal effect rating, SAGPY ([2]; 0.1250 kg/ha): 4.0
- herbicidal effect rating, SAGPY ([2]; 0.2500 kg/ha): 4.0
- herbicidal effect rating, ECHORC ([3]; 0.0313 kg/ha): 5.0
- herbicidal effect rating, ECHORC ([3]; 0.0625 kg/ha): 5.0
- herbicidal effect rating, ECHORC ([3]; 0.1250 kg/ha): 7.0
- herbicidal effect rating, ECHORC ([3]; 0.2500 kg/ha): 7.0
- herbicidal effect rating, CYPSE (CYPSE (Flatsedge); 0.0313 kg/ha): 0.0
- herbicidal effect rating, CYPSE (CYPSE (Flatsedge); 0.0625 kg/ha): 0.0
- herbicidal effect rating, CYPSE (CYPSE (Flatsedge); 0.1250 kg/ha): 0.0
- herbicidal effect rating, CYPSE (CYPSE (Flatsedge); 0.2500 kg/ha): 0.0
- Preemergence herbicidal rating GALAP (GALAP (Galium) [4]; rate 0.0625 kg/ha): 0.0
- Preemergence herbicidal rating GALAP (GALAP (Galium) [4]; rate 0.1250 kg/ha): 0.0
- Preemergence herbicidal rating GALAP (GALAP (Galium) [4]; rate 0.2500 kg/ha): 0.0
- Herbicidal rating AMBEL (AMBEL (Ragweed, Common); rate 0.0156 kg/ha): 2.0
- Herbicidal rating AMBEL (AMBEL (Ragweed, Common); rate 0.0313 kg/ha): 2.0
- Herbicidal rating AMBEL (AMBEL (Ragweed, Common); rate 0.0625 kg/ha): 4.0
- Herbicidal rating GALAP (GALAP (Galium) [5]; rate 0.0156 kg/ha): 0.0
- Herbicidal rating GALAP (GALAP (Galium) [5]; rate 0.0313 kg/ha): 0.0
- Herbicidal rating GALAP (GALAP (Galium) [5]; rate 0.0625 kg/ha): 2.0
- Preemergence herbicidal rating ORYSAT (ORYSAT (Rice, Tebonnet); rate 0.0625 kg/ha): 0.0
- Preemergence herbicidal rating ORYSAT (ORYSAT (Rice, Tebonnet); rate 0.1250 kg/ha): 0.0
- Preemergence herbicidal rating ORYSAT (ORYSAT (Rice, Tebonnet); rate 0.2500 kg/ha): 0.0
- herbicidal effect rating, MOOVA (MOOVA (Monochoria); 0.0313 kg/ha): 4.0
- herbicidal effect rating, MOOVA (MOOVA (Monochoria); 0.0625 kg/ha): 7.0
- herbicidal effect rating, MOOVA (MOOVA (Monochoria); 0.1250 kg/ha): 9.0
- herbicidal effect rating, MOOVA (MOOVA (Monochoria); 0.2500 kg/ha): 9.0
- Herbicidal rating GLXMAW ([6]; rate 0.0156 kg/ha): 3.5
- Herbicidal rating GLXMAW ([6]; rate 0.0313 kg/ha): 4.5
- Herbicidal rating GLXMAW ([6]; rate 0.0625 kg/ha): 5.5
